Measured values: PMC6153936, “Bisarylureas Based on 1H-Pyrazolo[3,4-d]pyrimidine Scaffold as Novel Pan-RAF Inhibitors with Potent Anti-Proliferative Activities: Structure-Based Design, Synthesis, Biological Evaluation and Molecular Modelling Studies” (Molecules : A Journal of Synthetic Chemistry and Natural …, 2017)
One block for each compound: values may come before it.

What was measured:
BRAF^V600E = target: T1, BRAF^V600E (Homo sapiens, UniProt P15056, V600E); assay: BRAF^V600E kinase inhibition, Z'-LYTE; format: biochemical; conditions: for inhibition at 0.1 µM: 100 nM
T1 construct: purchased Life Technologies
Procedure: The experiments were performed according to the instructions of the manufacturer, and single point concentration testing with two independent data points (n = 2). […] The IC50 values were calculated from the inhibition curves from two separate experiments.

A375 = assay: MTT anti-proliferative assay, A375; format: cell-based; conditions: Homo sapiens, A-375, 48 h
Procedure: (§2) All cell lines were purchased from Cell Bank of China Science Academy (Shanghai, China). All chemicals and solvents were purchased from Sigma-Aldrich (St. Louis, MO, USA) or Gibco (Gibco BRL, Grand Island, NY, USA). The PC-3 and A375 cell lines was maintained in Dulbecco's modified eagle (DEME) medium supplement with 10% fetal bovine serum (FBS) and 1% penicillin–streptomycin. The others were cultured in Roswell Park Memorial Institute (RPMI) 1640 medium supplement with 10% fetal bovine serum (FBS) and 1% penicillin–streptomycin. Approximately 5 × 10^3 cells, suspended in medium, were plated into each well of a 96-well plate and grown at 37 °C in a humidified atmosphere with 5% CO2 for 24 h. The following day, various concentrations of tested compounds were added to the culture medium and incubated for 48 h. Fresh MTT was added to each well at the terminal concentration of 5 mg/mL in phosphate buffered saline (PBS), and incubated with cells at 37 °C for 4 h. The formazan crystals in each well were dissolved in 150 μL DMSO, and the absorbency at 570 nm was measured with an enzyme-linked immunosorbent assay plate reader. All of the compounds were tested three times in each of the cell lines.

HT-29 = assay: MTT anti-proliferative assay, HT-29; format: cell-based; conditions: Homo sapiens, 48 h
Procedure: as §2

PC-3 = assay: MTT anti-proliferative assay, PC-3; format: cell-based, human; conditions: Homo sapiens, PC-3; MTT, 48 h
Procedure: as §2

A549 = assay: MTT anti-proliferative assay, A549; format: cell-based, human; conditions: Homo sapiens, A549; MTT, 48 h
Procedure: as §2

BRAF (wt) = BRAF (wt) (Homo sapiens, UniProt P15056); assay: Kinase selectivity profile; format: biochemical
RAF1 (CRAF) = RAF1 (CRAF) (Homo sapiens, UniProt P04049); assay: Kinase selectivity profile; format: biochemical
ABL2 (Arg) = ABL2 (Arg) (Homo sapiens, UniProt P42684); assay: Kinase selectivity profile; format: biochemical
EGFR (ErbB1) = EGFR (ErbB1) (Homo sapiens, UniProt P00533); assay: Kinase selectivity profile; format: biochemical
ErbB2 (HER2) = ErbB2 (HER2) (Homo sapiens, UniProt P04626); assay: Kinase selectivity profile; format: biochemical
ErbB4 (HER4) = ErbB4 (HER4) (Homo sapiens, UniProt Q15303); assay: Kinase selectivity profile; format: biochemical
PTK2 (FAK) = PTK2 (FAK) (Homo sapiens, UniProt Q05397); assay: Kinase selectivity profile; format: biochemical
FLT1 (VEGFR1) = FLT1 (VEGFR1) (Homo sapiens, UniProt P17948); assay: Kinase selectivity profile; format: biochemical
MET (c-Met) = MET (c-Met) (Homo sapiens, UniProt P08581); assay: Kinase selectivity profile; format: biochemical
VEGFR-2 = VEGFR-2 (Homo sapiens, UniProt P35968); assay: Kinase selectivity profile; format: biochemical
EPHA2 = EPHA2 (Homo sapiens, UniProt P29317); assay: Kinase selectivity profile; format: biochemical
FLT4 (VEGFR3) = FLT4 (VEGFR3) (Homo sapiens, UniProt P35916); assay: Kinase selectivity profile; format: biochemical
ABL1 = ABL1 (Homo sapiens, UniProt P00519); assay: Kinase selectivity profile; format: biochemical
ALK = ALK (Homo sapiens, UniProt Q9UM73); assay: Kinase selectivity profile; format: biochemical
AURKA (Aurora A) = AURKA (Aurora A) (Homo sapiens, UniProt O14965); assay: Kinase selectivity profile; format: biochemical
AURKB (Aurora B) = AURKB (Aurora B) (Homo sapiens, UniProt Q96GD4); assay: Kinase selectivity profile; format: biochemical
LCK = LCK (Homo sapiens, UniProt P06239); assay: Kinase selectivity profile; format: biochemical
LTK (TYK1) = LTK (TYK1) (Homo sapiens, UniProt P29376); assay: Kinase selectivity profile; format: biochemical
MST1R (RON) = MST1R (RON) (Homo sapiens, UniProt Q04912); assay: Kinase selectivity profile; format: biochemical
A375 cell line = assay: Flow cytometric analysis of cell cycle distribution; format: cell-based, human; conditions: for G0/G1 (%) / G2/M (%) / S (%) / Sub-G1 (%): 48 h
Procedure: The effect of compound 1v on cell cycle phase distribution of human malignant melanoma A375 was assessed using flow cytometry. When the cells grew to about 70% confluence in 6-well microplates, they were treated with compound 1v at given concentrations (6.11 μmol/L, 12.21 μmol/L, 24.42 μmol/L). After 48 h, cells were harvested by trypsinization, washed with PBS, and fixed in 70% ice cold (4 °C) ethanol overnight. They were then washed with PBS, incubated with Ribonuclease (RNase) ([…] final concentration) at 37 °C for 30 min, stained with propidium iodide ([…] final concentration), and analyzed by flow cytometry (BD FACS Canto II, BD Biosciences, San Jose, CA, USA).

[1] = test system: phosphor-MEK protein in A375 cell line; assay: Western blot of phosphor-MEK, A375; format: cell-based, human; conditions: A375, 48 h treatment
Procedure: (§1) Total cells were harvested after treatment, washed twice with cold PBS, and lysed with RIPA lysis buffer (KeyGEN BioTECH, Nanjing, China) including 1% cocktail (Selleck Chemicals, Houston, TX, USA). Lysates were centrifuged at 12,000× g at 4 °C for 15 min, and the supernatant was collected. Total protein concentration was quantified using the bicinchoninic acid (BCA; Beyotime Institute of Biotechnology, Nanjing, China) protein assay kit (Sigma Chemical Co., St. Louis, MO, USA). The proteins were separated electrophoretically using 10% sodium dodecyl sulfate polyacrylamide gel electrophoresis (SDS-PAGE) and then the gel was transferred onto polyvinylidene fluoride (PVDF; Millipore, Billerica, MA, USA) membranes. […] The immunobands were detected with an enhanced chemiluminescence kit (Beyotime Institute of Biotechnology, Nanjing, China).

[2] = test system: phosphor-MEK protein in HT-29 cell line; assay: Western blot of phosphor-MEK, HT-29; format: cell-based, human; conditions: HT-29, 48 h treatment
Procedure: as §1

[3] = MTT cytotoxic assay, normal cell line MDCK; conditions: dog, MDCK cells (normal cell line)
Procedure: as §2

in vitro = conditions: dog
Procedure: as §2

[4] = average of two independent experiments
[5] = 1000 nM, average of two independent experiments

T1 sequence (P15056 whole entry V600E): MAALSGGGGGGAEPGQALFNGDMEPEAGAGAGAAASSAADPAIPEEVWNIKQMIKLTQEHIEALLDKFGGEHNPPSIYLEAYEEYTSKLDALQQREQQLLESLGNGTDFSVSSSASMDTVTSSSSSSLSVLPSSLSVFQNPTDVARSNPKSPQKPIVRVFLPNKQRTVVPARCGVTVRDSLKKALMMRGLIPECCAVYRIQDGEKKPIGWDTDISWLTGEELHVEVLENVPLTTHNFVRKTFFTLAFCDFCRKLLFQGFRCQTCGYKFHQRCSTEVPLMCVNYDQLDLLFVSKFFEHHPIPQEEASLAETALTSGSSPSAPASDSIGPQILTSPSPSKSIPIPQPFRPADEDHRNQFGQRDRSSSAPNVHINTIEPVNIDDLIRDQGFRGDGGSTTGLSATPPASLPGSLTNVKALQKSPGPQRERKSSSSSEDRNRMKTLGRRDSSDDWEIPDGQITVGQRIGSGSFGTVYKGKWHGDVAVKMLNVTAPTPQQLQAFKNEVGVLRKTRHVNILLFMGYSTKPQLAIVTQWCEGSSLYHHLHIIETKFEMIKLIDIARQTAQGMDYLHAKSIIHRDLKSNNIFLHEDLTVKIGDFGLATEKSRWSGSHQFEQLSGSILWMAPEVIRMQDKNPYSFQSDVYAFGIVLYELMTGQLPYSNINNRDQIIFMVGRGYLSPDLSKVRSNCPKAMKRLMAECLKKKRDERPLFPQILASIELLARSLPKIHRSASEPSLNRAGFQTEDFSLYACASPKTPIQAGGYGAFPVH
BRAF (wt), sequence (P15056 whole entry): as the sequence (P15056 whole entry V600E) above, with E600V counted along it
RAF1 (CRAF), sequence (P04049 342-648 limits assumed): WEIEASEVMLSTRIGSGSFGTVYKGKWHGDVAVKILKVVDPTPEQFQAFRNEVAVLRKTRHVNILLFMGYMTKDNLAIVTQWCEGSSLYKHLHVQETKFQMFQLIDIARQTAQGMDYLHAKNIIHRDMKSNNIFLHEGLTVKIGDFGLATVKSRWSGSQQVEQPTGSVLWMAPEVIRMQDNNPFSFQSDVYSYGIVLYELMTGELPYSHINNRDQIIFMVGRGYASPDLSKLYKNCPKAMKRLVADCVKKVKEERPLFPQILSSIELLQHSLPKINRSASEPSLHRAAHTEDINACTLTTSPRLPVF
ErbB4 (HER4), sequence (Q15303 26-1308): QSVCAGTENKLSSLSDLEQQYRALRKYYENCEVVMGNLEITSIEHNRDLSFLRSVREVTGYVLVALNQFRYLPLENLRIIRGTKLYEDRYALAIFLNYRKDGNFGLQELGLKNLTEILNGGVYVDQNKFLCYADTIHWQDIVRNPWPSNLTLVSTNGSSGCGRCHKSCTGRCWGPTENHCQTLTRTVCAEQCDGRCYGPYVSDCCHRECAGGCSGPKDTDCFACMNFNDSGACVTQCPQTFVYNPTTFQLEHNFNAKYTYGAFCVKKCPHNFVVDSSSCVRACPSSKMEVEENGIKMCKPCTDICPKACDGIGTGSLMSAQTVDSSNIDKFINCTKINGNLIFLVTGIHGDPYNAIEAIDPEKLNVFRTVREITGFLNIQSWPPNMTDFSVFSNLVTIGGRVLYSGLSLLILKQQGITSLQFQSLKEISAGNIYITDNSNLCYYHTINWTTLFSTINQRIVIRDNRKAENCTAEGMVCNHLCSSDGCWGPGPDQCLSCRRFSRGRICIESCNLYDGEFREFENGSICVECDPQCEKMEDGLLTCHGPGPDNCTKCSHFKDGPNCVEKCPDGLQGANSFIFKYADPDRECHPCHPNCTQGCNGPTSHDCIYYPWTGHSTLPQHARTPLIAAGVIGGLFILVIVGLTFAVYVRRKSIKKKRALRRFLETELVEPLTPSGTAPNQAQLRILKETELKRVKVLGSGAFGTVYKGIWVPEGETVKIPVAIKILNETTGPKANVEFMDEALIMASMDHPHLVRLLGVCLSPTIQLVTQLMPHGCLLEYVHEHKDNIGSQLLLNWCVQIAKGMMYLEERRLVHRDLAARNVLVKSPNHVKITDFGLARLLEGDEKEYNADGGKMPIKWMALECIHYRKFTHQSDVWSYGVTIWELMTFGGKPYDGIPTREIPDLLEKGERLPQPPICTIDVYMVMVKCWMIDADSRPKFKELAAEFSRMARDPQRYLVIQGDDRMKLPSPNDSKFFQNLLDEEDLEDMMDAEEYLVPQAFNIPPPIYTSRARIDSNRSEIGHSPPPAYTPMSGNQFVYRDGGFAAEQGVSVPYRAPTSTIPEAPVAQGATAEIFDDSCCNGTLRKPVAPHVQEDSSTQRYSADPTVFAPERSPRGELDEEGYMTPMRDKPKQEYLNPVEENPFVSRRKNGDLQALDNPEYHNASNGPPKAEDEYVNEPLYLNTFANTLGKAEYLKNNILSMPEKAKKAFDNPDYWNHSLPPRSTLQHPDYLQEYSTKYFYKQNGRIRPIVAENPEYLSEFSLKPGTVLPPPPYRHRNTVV
EPHA2, sequence (P29317 24-976): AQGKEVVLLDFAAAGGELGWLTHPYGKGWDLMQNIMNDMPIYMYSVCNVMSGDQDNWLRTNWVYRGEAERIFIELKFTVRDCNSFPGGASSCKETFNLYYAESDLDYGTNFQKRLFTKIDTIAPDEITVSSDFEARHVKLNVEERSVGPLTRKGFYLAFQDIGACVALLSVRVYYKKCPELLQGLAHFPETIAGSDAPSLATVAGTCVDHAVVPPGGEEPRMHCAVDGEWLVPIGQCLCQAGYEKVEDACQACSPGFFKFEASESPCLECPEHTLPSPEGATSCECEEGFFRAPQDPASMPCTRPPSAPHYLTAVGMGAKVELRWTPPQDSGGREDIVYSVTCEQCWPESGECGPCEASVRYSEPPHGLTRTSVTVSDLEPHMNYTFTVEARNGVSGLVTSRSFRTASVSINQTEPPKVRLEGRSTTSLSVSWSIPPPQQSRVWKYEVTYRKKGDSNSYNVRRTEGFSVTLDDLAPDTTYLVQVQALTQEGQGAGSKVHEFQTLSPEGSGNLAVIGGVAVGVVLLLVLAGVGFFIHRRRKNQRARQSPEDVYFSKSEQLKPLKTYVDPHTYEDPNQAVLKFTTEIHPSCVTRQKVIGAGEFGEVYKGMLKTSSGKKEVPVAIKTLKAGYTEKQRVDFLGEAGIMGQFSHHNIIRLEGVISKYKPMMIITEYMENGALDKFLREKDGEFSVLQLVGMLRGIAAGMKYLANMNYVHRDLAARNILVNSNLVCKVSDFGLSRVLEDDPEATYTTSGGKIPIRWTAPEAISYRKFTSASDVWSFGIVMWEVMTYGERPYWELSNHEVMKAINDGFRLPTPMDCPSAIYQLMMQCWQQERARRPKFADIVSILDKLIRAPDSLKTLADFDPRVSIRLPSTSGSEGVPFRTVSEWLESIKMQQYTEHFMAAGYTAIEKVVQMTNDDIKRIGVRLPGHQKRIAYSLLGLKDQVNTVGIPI
ABL2 (Arg), sequence (P42684 whole entry): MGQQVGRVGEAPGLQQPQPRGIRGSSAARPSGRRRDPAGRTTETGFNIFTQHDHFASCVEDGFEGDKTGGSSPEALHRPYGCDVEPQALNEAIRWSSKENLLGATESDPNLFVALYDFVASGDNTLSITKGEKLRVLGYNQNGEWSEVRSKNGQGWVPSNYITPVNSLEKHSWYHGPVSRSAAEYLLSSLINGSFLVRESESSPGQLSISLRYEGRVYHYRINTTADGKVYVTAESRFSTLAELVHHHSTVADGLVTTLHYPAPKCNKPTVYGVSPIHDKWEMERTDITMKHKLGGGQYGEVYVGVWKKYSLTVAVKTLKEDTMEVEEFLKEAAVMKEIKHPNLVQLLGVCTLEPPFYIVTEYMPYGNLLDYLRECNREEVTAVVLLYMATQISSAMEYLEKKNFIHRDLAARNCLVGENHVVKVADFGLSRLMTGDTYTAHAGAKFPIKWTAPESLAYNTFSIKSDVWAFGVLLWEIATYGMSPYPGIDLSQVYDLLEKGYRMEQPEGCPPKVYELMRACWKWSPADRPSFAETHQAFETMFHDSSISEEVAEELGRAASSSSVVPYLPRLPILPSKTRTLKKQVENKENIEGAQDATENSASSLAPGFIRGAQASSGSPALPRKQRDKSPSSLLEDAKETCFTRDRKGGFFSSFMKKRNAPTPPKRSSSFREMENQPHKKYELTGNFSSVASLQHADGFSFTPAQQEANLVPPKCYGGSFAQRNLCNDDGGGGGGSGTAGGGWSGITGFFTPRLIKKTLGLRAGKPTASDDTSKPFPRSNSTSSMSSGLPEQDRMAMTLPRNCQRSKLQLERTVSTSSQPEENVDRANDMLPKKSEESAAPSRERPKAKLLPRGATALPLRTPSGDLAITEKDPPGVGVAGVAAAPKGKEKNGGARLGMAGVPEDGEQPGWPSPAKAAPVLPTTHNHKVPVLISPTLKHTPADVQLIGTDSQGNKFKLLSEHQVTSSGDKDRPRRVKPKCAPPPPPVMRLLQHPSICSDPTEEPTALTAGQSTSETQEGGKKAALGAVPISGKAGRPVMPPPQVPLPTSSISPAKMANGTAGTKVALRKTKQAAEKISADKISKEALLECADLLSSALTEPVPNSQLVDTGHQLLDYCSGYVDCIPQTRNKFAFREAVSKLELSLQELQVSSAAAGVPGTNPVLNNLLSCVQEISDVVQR
AURKA (Aurora A), sequence (O14965 whole entry): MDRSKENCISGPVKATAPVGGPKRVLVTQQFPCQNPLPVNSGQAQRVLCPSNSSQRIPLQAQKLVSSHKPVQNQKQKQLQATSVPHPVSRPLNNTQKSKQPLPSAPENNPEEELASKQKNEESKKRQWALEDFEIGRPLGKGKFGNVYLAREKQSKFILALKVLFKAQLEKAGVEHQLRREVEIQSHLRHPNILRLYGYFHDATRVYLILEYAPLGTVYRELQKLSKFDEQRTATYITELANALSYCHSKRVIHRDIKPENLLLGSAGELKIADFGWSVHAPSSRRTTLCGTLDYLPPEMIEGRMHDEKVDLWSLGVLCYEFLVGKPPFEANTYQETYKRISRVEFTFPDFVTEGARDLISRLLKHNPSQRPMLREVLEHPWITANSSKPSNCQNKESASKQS

SMILES: Cn1ncc2c(Oc3ccc(NC(=O)Nc4ccc(Cl)c(C(F)(F)F)c4)cc3)ncnc21 [Compound 1v, 1-(4-Chloro-3-(trifluoromethyl)phenyl)-3-(4-((1-methyl-1H-pyrazolo[3,4-d]pyrimidin-4-yl)oxy)phenyl)urea]
inhibition at 0.1 µM (BRAF^V600E; [4]): 81%
inhibition at 1 µM (BRAF^V600E; [5]): 97%
IC50 (BRAF^V600E; ten concentrations 1000 to 0.0508 nM, two independent experiments): 0.0236 µM
IC50 (A375): 12.2 µM
IC50 (HT-29): 14.7 µM
IC50 (PC-3): 23.4 µM
IC50 (A549): 12.5 µM
Inhibition % at 1 μΜ, BRAF (wt) (BRAF (wt); 1 μΜ): 105%
IC50 (BRAF (wt); in parentheses in Table 4, read-out: wild-type BRAF IC50): 0.0515 µM
Inhibition % at 1 μΜ, RAF1 (CRAF) (RAF1 (CRAF); 1 μΜ): 102%
IC50 (RAF1 (CRAF); in parentheses in Table 4, read-out: C-RAF IC50): 0.0085 µM
Inhibition % at 1 μΜ, ABL2 (Arg) (ABL2 (Arg)): 4%
Inhibition % at 1 μΜ, EGFR (ErbB1) (EGFR (ErbB1)): 8%
Inhibition % at 1 μΜ, ErbB2 (HER2) (ErbB2 (HER2)): −7%
Inhibition % at 1 μΜ, ErbB4 (HER4) (ErbB4 (HER4)): 7%
Inhibition % at 1 μΜ, PTK2 (FAK) (PTK2 (FAK)): 13%
Inhibition % at 1 μΜ, FLT1 (VEGFR1) (FLT1 (VEGFR1)): 31%
Inhibition % at 1 μΜ, MET (c-Met) (MET (c-Met)): 6%
Inhibition % at 1 μΜ, VEGFR-2 (VEGFR-2): 56%
Inhibition % at 1 μΜ, EPHA2 (EPHA2): 2%
Inhibition % at 1 μΜ, FLT4 (VEGFR3) (FLT4 (VEGFR3)): 58%
Inhibition % at 1 μΜ, ABL1 (ABL1): 5%
Inhibition % at 1 μΜ, ALK (ALK): 7%
Inhibition % at 1 μΜ, AURKA (Aurora A) (AURKA (Aurora A)): 17%
Inhibition % at 1 μΜ, AURKB (Aurora B) (AURKB (Aurora B)): 42%
Inhibition % at 1 μΜ, LCK (LCK): 20%
Inhibition % at 1 μΜ, LTK (TYK1) (LTK (TYK1)): 3%
Inhibition % at 1 μΜ, MST1R (RON) (MST1R (RON)): −2%
G0/G1 (%) (A375 cell line; A375, 6.11 μmol/L): 42.53%
G2/M (%) (A375 cell line; A375, 6.11 μmol/L): 10.94%
S (%) (A375 cell line; A375, 6.11 μmol/L): 38.25%
Sub-G1 (%) (A375 cell line; A375, 6.11 μmol/L): 4.39%
G0/G1 (%) (A375 cell line; A375, 12.21 μmol/L): 47.94%
G2/M (%) (A375 cell line; A375, 12.21 μmol/L): 7.39%
S (%) (A375 cell line; A375, 12.21 μmol/L): 38.13%
Sub-G1 (%) (A375 cell line; A375, 12.21 μmol/L): 2.12%
G0/G1 (%) (A375 cell line; A375, 24.42 μmol/L): 52.73%
G2/M (%) (A375 cell line; A375, 24.42 μmol/L): 5.48%
S (%) (A375 cell line; A375, 24.42 μmol/L): 36.19%
Sub-G1 (%) (A375 cell line; A375, 24.42 μmol/L): 5.48%
effect on cell cycle progression (A375 cell line; A375, 48 h, G0/G1 phase): dose-dependent cell cycle arrest
phosphor-MEK levels (western blot) [1]: suppressed phosphor-MEK levels in a concentration-dependent manner
phosphor-MEK levels (western blot) [2]: suppressed phosphor-MEK levels in a concentration-dependent manner
melting point: 212.1 to 213 °C
IC50 at 48 h [3]: > 80 µM

SMILES: O=C(Nc1ccccc1)Nc1ccc(Oc2ncnc3[nH]ncc23)cc1 [Compound 1e, 1-(4-((1H-Pyrazolo[3,4-d]pyrimidin-4-yl)oxy)phenyl)-3-phenylurea]
BRAF^V600E (%) inhibition at 1000 nM (BRAF^V600E; [5]): no inhibitory activity
inhibition at 1 µM (BRAF^V600E; [5]): 1%
IC50 (A375): > 80 µM
IC50 (HT-29): > 80 µM
IC50 (PC-3): > 80 µM
IC50 (A549): > 80 µM
melting point: 247.3 to 249.2 °C
IC50 at 48 h (in vitro): > 80 µM

SMILES: CSc1cccc(NC(=O)Nc2ccc(Oc3ncnc4[nH]ncc34)cc2)c1 [Compound 1o, 1-(4-((1H-Pyrazolo[3,4-d]pyrimidin-4-yl)oxy)phenyl)-3-(3-(methylthio)phenyl)urea]
inhibition at 0.1 µM (BRAF^V600E; [4]): 29%
inhibition at 1 µM (BRAF^V600E; [5]): 69%
IC50 (A375): > 80 µM
IC50 (HT-29): > 80 µM
IC50 (PC-3): 5.34 µM
IC50 (A549): 30 µM
melting point: 227.3 to 228.4 °C
IC50 at 48 h [3]: > 80 µM

The remaining lines, values ahead:

inhibition at 1 µM (BRAF^V600E; [5]): 27%
IC50 (A375): > 80 µM
IC50 (HT-29): > 80 µM
IC50 (PC-3): 11.7 µM
IC50 (A549): > 80 µM
melting point: 250.4 to 252.3 °C
IC50 at 48 h (in vitro): > 80 µM
SMILES: Cc1cccc(NC(=O)Nc2ccc(Oc3ncnc4[nH]ncc34)cc2)c1C [Compound 1h, 1-(4-((1H-Pyrazolo[3,4-d]pyrimidin-4-yl)oxy)phenyl)-3-(2,3-dimethylphenyl)urea]

inhibition at 0.1 µM (BRAF^V600E; [4]): 37%
inhibition at 1 µM (BRAF^V600E; [5]): 90%
IC50 (A375): 29.3 µM
IC50 (HT-29): > 80 µM
IC50 (PC-3): 19.5 µM
IC50 (A549): 19.8 µM
IC50 at 48 h (in vitro): 17.8 µM
SMILES: O=C(Nc1ccc(Oc2ncnc3[nH]ncc23)cc1)Nc1ccc(Cl)c(C(F)(F)F)c1 [Compound 1a, 1-(4-((1H-Pyrazolo[3,4-d]pyrimidin-4-yl)oxy)phenyl)-3-(4-chloro-3-(trifluoromet-hyl)phenyl)urea]
